Laboratory results reported in patent US3984547A, “Veterinary feedstuffs” (Bayer Aktiengesellschaft, priority 1971, dated 1976).
≈ marks a conversion by molar mass, not a printed value. Read-outs that look alike come from different tables or passages of the source.

Experiments:
[1] = system: Pseudomonas aeruginosa Bonn; experiment: MIC in vitro, plate test (agar), Table 1; assay type: cell-based; conditions: about 37° C, readings 24 and 48 h
Protocol: (§1) The minimum inhibitory concentrations in vitro for some of the new compounds shown in Table 1 (MIC) were determined by the plate test in an agar medium of the following composition: |proteose peptone 10.0 g per liter |5.1 × 10^3 germs were inoculated per plate. […]. Readings were taken after 24 and 48 hours, and the incubation temperature was about 37° C.

[2] = system: Escherichia coli C 165; experiment: ED100 in mice after intraperitoneal infection, Table 3; assay type: in vivo; conditions: read-out: effective 100% dose (ED100)
Protocol: In animal experiments on mice, the effective 100% dose (ED100) in mg/Kg was determined for certain compounds of the invention after intraperitoneal infection and subcutaneous (s.c.) or oral (p.o.) administration of the preparation.

[3] = system: Proteus vulgaris species; experiment: MIC in vitro, plate test (agar), Table 1; assay type: cell-based; conditions: about 37° C, readings 24 and 48 h
Protocol: as §1

NN=Cc1c(C(=O)O)[n+]([O-])c2ccccc2[n+]1[O-] [Example 10]
MIC [1]: 100 µg/mL (≈ 403 µM)

O=C(O)c1c(C=NCCO)[n+]([O-])c2ccccc2[n+]1[O-] [Example 8]
ED100 ([2]; C165, oral (p.c. [sic])): 100 mg/kg
ED100 ([2]; C165, sc, s.c.): 50 mg/kg

NC(=O)NN=Cc1c(C(=O)O)[n+]([O-])c2ccccc2[n+]1[O-] [Example 12]
MIC [3]: 150 µg/mL (≈ 515 µM)
